Data published in patent publication EP0103381B1, “Substituted anthra(1,9-cd)pyrazol-6(2H)-ones” (WARNER-LAMBERT COMPANY, priority 1982, dated 1984).

Experiments:
Bacillus subtilis = assay: agar plate paper-disc inhibition zone screening; type: cell-based; details: Dose 1.0 mg/ml, read-out: Inhibition Zone Diameter mm (Dose mg/ml) B. Subtilis
Summary of the method: (§1)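 Inoculum: saline suspension, 20-35% transmittancy, in molten agar. Discs 12.7 mm, compound 3,000/1,000/500/100/10 mcg/ml, solvent <10%. 37°C, 18-20 h; zone diameter in mm.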

Escherichia coli = assay: agar plate paper-disc inhibition zone screening; type: cell-based; details: Dose 0.5 mg/ml, read-out: Inhibition Zone Diameter mm (Dose mg/ml) E. Coli
Summary of the method: as §1

Streptococcus faecalis = assay: agar plate paper-disc inhibition zone screening; type: cell-based; details: Enterococcus faecalis; Dose 1.0 mg/ml; read-out: Inhibition Zone Diameter mm (Dose mg/ml) S. Faecalis
Summary of the method: as §1

B16 Melanoma (BDF1) = assay: broad spectrum antitumor activity in mice, B16 melanoma (BDF1); type: in vivo; details: IP/IP
Text: (§2) Broad Spectrum Antitumor Activity^* of 2-[2-(Diethylamino)ethyl]-7,10-dihydroxy-5-[[2-[(2-hydroxyethyl)amino]ethyl]amino]anthra[1-9-cd]pyrazol-6(2H)-one Dihydrochloride in Mice

L1210 Leukemia (CDF1) = assay: broad spectrum antitumor activity in mice, L1210 leukemia; type: in vivo; details: IP/IP
Text: as §2

Compound: CCN(CC)CCn1nc2c3c(c(NCCNCCO)ccc31)C(=O)c1c(O)ccc(O)c1-2 [Example 28, 2-[2-(Diethylamino)ethyl]-7,10-dihydroxy-5-[[2-[(2-hydroxyethyl)amino]ethyl]amino]anthra[1,9-cd]pyrazol-6(2H)-one]
- zone of inhibition at 1000 µg/mL (Bacillus subtilis): 15 mm
- zone of inhibition at 500 µg/mL (Escherichia coli): 14 mm
- zone of inhibition at 1000 µg/mL (Streptococcus faecalis): 14 mm
- T/C × 100 (Percent) (B16 Melanoma (BDF1); Q01D × 09, Dose 4 mg/kg): 151%
- T/C × 100 (Percent) (B16 Melanoma (BDF1); Q01D × 09, Dose 8 mg/kg): 176%
- T/C × 100 (Percent) (L1210 Leukemia (CDF1); Q01D × 09, Dose 1 mg/kg): 137%
- T/C × 100 (Percent) (L1210 Leukemia (CDF1); Q01D × 09, Dose 2 mg/kg): 144%
- T/C × 100 (Percent) (L1210 Leukemia (CDF1); Q01D × 09, Dose 4 mg/kg): 178%
- T/C × 100 (Percent) (L1210 Leukemia (CDF1); Q01D × 09, Dose 8 mg/kg): 240%
- T/C × 100 (Percent) (L1210 Leukemia (CDF1); Q01D × 09, Dose 16 mg/kg): 133%
